{
  "source": "patent US20210275480A1",
  "about": "“COMPOSITIONS AND METHODS FOR THE REDUCTION OR TREATMENT OF FIBROSIS” (AXCELLA HEALTH INC., priority 2018, published 2021)",
  "tested_on": "FATZO mice (NASH)",
  "assay": "FATZO mouse western diet + fructose NASH model (Example 6): body and liver weight, liver histology, NAS, fibrosis, Sirius Red",
  "format": "in vivo",
  "details": "WDF-fed FATZO mice",
  "from_the_text": "In one example, the effects of […] and related amino acid compositions in the obesity, metabolism-driven non-alcoholic steatohepatitis (NASH) in FATZO mouse model was examined.\nNASH was induced in 60 male FATZO mice by a western diet (Research Diet #D12079B; fat 40% kcal, protein 17% kcal, carbohydrate 43% kcal) supplemented with 5% fructose in the drinking water (WDF) during a 16 week induction phase. Diets and water were available ad libitum. Littermate control male FATZO mice fed with a control diet (n=6, Purina #5008; fat 17% kcal, protein 27% kcal, carbohydrate 56% kcal) and sterile water were set up for control purpose. Mice were housed in plastic cages with microisolator. Sterilized bedding was replaced once a week. Mice were housed three per cage and maintained on a twelve hour light cycle throughout study duration. Room temperature was monitored daily and maintained at 22-25° C. Body weight was recorded every week during the induction phase.\nFollowing 16 weeks diet induction, 6 mice remained on control diet (group 1, Control) while 60 induced mice were randomized on body weight and plasma glucose (fed) for assignment to the following treatments. FATZO mice were administered with test articles starting at 16 weeks post western diet NASH induction for 4 weeks. Test articles were administered by oral gavage. Animals were euthanized at 20 weeks post western diet NASH induction, and tissues were harvested for analysis.\n[…], […]+G, LRQNAC, and OCA (Advanced ChemBlocks, Inc.), incipient, and water for irrigation were provided by Axcella Health, Inc. 0.5% Methylcellulose was provided by CrownBio, Inc. Dosing solutions were prepared according to Appendix 1. […] Obeticholic acid (OCA) was suspended in 0.5% methylcellulose in water for irrigation. All test articles were stored refrigerated. TA compounds were provided in frozen powder form by the sponsor. Dosing was continued for 4 weeks.\nLeucine dosages of […]+G and LRQNAC were matched to that of […].\n[…], […]+G, LRQNAC, OCA and Vehicle were administered by oral gavage at a volume of 10 mL/kg throughout the study. Dosages were calculated by daily body weight. […], […]+G, LRQNAC, and Vehicle were administered twice per day (BID), while OCA was administered once a day (QD) in the morning. Mice receiving OCA once per day (QD), and one vehicle QD. Doses were administered by oral gavage at 0700 and 1800 by oral gavage for 4 weeks.\nThe viability, clinical signs and behavior were monitored daily. Body weight was recorded daily during the dosing period. Blood samples were collected weekly in the AM (0700) via tail clip for glucose measurement (StatStrip glucometer).\nAnimals were anesthetized with CO2 inhalation and exsanguinated via cardiac puncture for euthanasia. Terminal blood samples (K2EDTA) were obtained by cardiac puncture in anesthetized animals at termination. Samples were provided frozen to Axcella Health. Organ weights (total liver, gonadal fat pads) were recorded. Pancreas, and small intestine and gonadal fat pads were fixed in 10% Buffered Formalin and prepared as directed in protocol. A section of small intestine, gonadal fat pad and liver were also snap frozen in liquid nitrogen and shipped to the sponsor.\nThe liver tissues were fixed in Bouin's solution at 4° C. for 24 hours followed by baths of standard concentrations of alcohol then xylene to prepare the tissues for paraffin embedding. After being embedded in paraffin and cooled, five-micron sections were cut and stained for routine H&E and Picric Sirius Red. A section of both right and left lobes of the livers were frozen in OCT for analysis of lipid content with Oil-Red-) staining. The Aperio whole slide digital imaging system (Scan Scope CS, Vista, Calif.) was used for imaging. All slides were imaged at 20×. The scan time ranged from 1.5 minutes to a maximum time of 2.25 minutes. […]",
  "key": {"[1]": {"details": "OCA oral gavage QD, 4 weeks, mean ± SEM"}},
  "data": [
    {"smiles": "CC[C@H]1[C@@H](O)[C@@H]2[C@H](CC[C@]3(C)[C@@H]([C@H](C)CCC(=O)O)CC[C@@H]23)[C@@]2(C)CC[C@@H](O)C[C@@H]12", "note": "[OCA, 6α-ethyl-chenodeoxycholic acid]", "values": [
      {"measurement": "Fibrosis (liver fibrosis score)", "setting": "[1]", "value": "0.67 ± 0.167"},
      {"measurement": "Liver Pathology: Inflammation", "setting": "[1]", "value": "1.0 ± 0.0"},
      {"measurement": "Liver Pathology: NAS", "setting": "[1]", "value": "3.72 ± 0.147"},
      {"measurement": "Sirius Red (collagen staining)", "setting": "[1]", "value": "1.59 ± 0.36"},
      {"measurement": "Liver Pathology: Ballooning", "setting": "OCA oral gavage QD, 4 weeks, score 0-2, mean ± SEM", "value": "0.94 ± 0.056"},
      {"measurement": "Liver Pathology: Steatosis", "setting": "OCA oral gavage QD, 4 weeks, score 0-3, mean ± SEM", "value": "1.78 ± 0.147"},
      {"measurement": "Body weight change compared to baseline", "setting": "4 weeks oral, LIVRQNAC 3000 mg/kg, LIVRQNAC+G 3885 mg/kg, LRQNAC 2469 mg/kg BID, OCA 30 mg/kg/day QD", "value": "−3.9±1.5", "unit": "%"},
      {"measurement": "Liver weight (% body weight)", "setting": "4 weeks, LIVRQNAC 3000 mg/kg, LIVRQNAC+G 3885 mg/kg, LRQNAC 2469 mg/kg, OCA 30 mg/kg/day", "value": "6.81±0.2", "unit": "% body weight"}
    ]}
  ]
}
